Measurements as given in patent US20160038468A1 (priority 2013, published 2016).
≈ marks a conversion by molar mass, not a printed value. Where two headings read alike, the source gives them in different places.

Tests used:
Format in all cases: cell-based
Mobiluncus all species = test: Agar dilution MIC (CLSI), Mobiluncus all species
M. curtisii = test: Agar dilution MIC (CLSI), M. curtisii vaginal isolates; conditions: 14 samples
Prevotella bivia = test: Agar dilution MIC (CLSI), Prevotella bivia vaginal isolates; conditions: for Number of strains with indicated MIC: 34 samples; for MIC: read-out: Minimal Inhibitory Concentration (MIC)
Prevotella timonensis = test: Agar dilution MIC (CLSI), Prevotella timonensis vaginal isolates; conditions: Hoylesella timonensis, read-out: Minimal Inhibitory Concentration (MIC)
[1] = number (%) of isolates, # tested 40

## Cc1ncc([N+](=O)[O-])n1CCO [Metronidazole]
Mobiluncus all species
  activity on Mobiluncus species: substantially less active
Mobiluncus all species; # tested 40
  MIC50: 8 µg/mL (≈ 46.7 µM)
  MIC90: > 128 µg/mL
Mobiluncus all species; [1]
  Intermediate: 1 (3) μg/ml
  Susceptible: 22 (55) μg/ml
Mobiluncus all species; number (%) of isolates, # tested 40, resistance: rifaximin >32, metronidazole >32, clindamycin >8 μg/ml
  Resistant: 17 (42) μg/ml
M. curtisii; MIC 64 μg/ml
  Number of strains with indicated MIC: 3
M. curtisii; MIC >[…]
  Number of strains with indicated MIC: 11
Prevotella bivia; # tested 34
  MIC Range: 4 to 16 µg/mL
Prevotella bivia; MIC 8 μg/ml
  Number of strains with indicated MIC: 6
Prevotella bivia; MIC 16 μg/ml
  Number of strains with indicated MIC: 13
Prevotella bivia; MIC […] μg/ml
  Number of strains with indicated MIC: 15
Prevotella bivia; Prevotella bivia, isolate 601096 25
  MIC: 4 µg/mL (≈ 23.4 µM)
Prevotella bivia; Prevotella bivia, isolate 601166 M
  MIC: 16 µg/mL (≈ 93.5 µM)
Prevotella bivia; Prevotella bivia, isolate 601202 21
  MIC: 16 µg/mL (≈ 93.5 µM)
Prevotella bivia; Prevotella bivia, isolate 601203 5
  MIC: 4 µg/mL (≈ 23.4 µM)
Prevotella bivia; Prevotella bivia, isolate 601209 A1
  MIC: 4 µg/mL (≈ 23.4 µM)
Prevotella bivia; Prevotella bivia, isolate 601212 9
  MIC: 4 µg/mL (≈ 23.4 µM)
Prevotella bivia; Prevotella bivia, isolate 601213 9A
  MIC: 16 µg/mL (≈ 93.5 µM)
Prevotella bivia; Prevotella bivia, isolate 601214 B
  MIC: 16 µg/mL (≈ 93.5 µM)
Prevotella bivia; Prevotella bivia, isolate 601241 13
  MIC: 4 µg/mL (≈ 23.4 µM)
Prevotella bivia; Prevotella bivia, isolate 601243 15
  MIC: 16 µg/mL (≈ 93.5 µM)
Prevotella bivia; Prevotella bivia, isolate 601255 10
  MIC: 4 µg/mL (≈ 23.4 µM)
Prevotella bivia; Prevotella bivia, isolate 601261 C
  MIC: 4 µg/mL (≈ 23.4 µM)
Prevotella bivia; Prevotella bivia, isolate 601283 20
  MIC: 16 µg/mL (≈ 93.5 µM)
Prevotella bivia; Prevotella bivia, isolate 601285 14
  MIC: 4 µg/mL (≈ 23.4 µM)
Prevotella bivia; Prevotella bivia, isolate 601293 22
  MIC: 8 µg/mL (≈ 46.7 µM)
Prevotella bivia; Prevotella bivia, isolate 601305 H
  MIC: 16 µg/mL (≈ 93.5 µM)
Prevotella bivia; Prevotella bivia, isolate 601340 31
  MIC: 4 µg/mL (≈ 23.4 µM)
Prevotella bivia; Prevotella bivia, isolate 601355 B
  MIC: 8 µg/mL (≈ 46.7 µM)
Prevotella bivia; Prevotella bivia, isolate 601367 M
  MIC: 8 µg/mL (≈ 46.7 µM)
Prevotella bivia; Prevotella bivia, isolate 601374 A1
  MIC: 16 µg/mL (≈ 93.5 µM)
Prevotella bivia; Prevotella bivia, isolate 601378 B
  MIC: 16 µg/mL (≈ 93.5 µM)
Prevotella bivia; Prevotella bivia, isolate 601379 19
  MIC: 16 µg/mL (≈ 93.5 µM)
Prevotella bivia; Prevotella bivia, isolate 601388 T
  MIC: 4 µg/mL (≈ 23.4 µM)
Prevotella bivia; Prevotella bivia, isolate 601389 10
  MIC: 4 µg/mL (≈ 23.4 µM)
Prevotella bivia; Prevotella bivia, isolate 601389 J
  MIC: 4 µg/mL (≈ 23.4 µM)
Prevotella bivia; Prevotella bivia, isolate 601392 14
  MIC: 4 µg/mL (≈ 23.4 µM)
Prevotella bivia; Prevotella bivia, isolate 601409 V
  MIC: 4 µg/mL (≈ 23.4 µM)
Prevotella bivia; Prevotella bivia, isolate 601410 12
  MIC: 4 µg/mL (≈ 23.4 µM)
Prevotella bivia; Prevotella bivia, isolate 601429 1
  MIC: 8 µg/mL (≈ 46.7 µM)
Prevotella bivia; Prevotella bivia, isolate 601433 19
  MIC: 8 µg/mL (≈ 46.7 µM)
Prevotella bivia; Prevotella bivia, isolate 601449 E
  MIC: 16 µg/mL (≈ 93.5 µM)
Prevotella bivia; Prevotella bivia, isolate 601453 A
  MIC: 8 µg/mL (≈ 46.7 µM)
Prevotella bivia; Prevotella bivia, isolate 601455 D1
  MIC: 16 µg/mL (≈ 93.5 µM)
Prevotella bivia; Prevotella bivia, isolate 601458 16
  MIC: 16 µg/mL (≈ 93.5 µM)
Prevotella bivia; Prevotella bivia, # tested 34
  MIC50: 8 µg/mL (≈ 46.7 µM)
  MIC90: 16 µg/mL (≈ 93.5 µM)
Prevotella bivia; number (%) of isolates, # tested 34
  Susceptible: 21 (62) μg/ml
Prevotella timonensis; isolate 301212 10
  MIC: 2 µg/mL (≈ 11.7 µM)
Prevotella timonensis; isolate 601080 5
  MIC: 2 µg/mL (≈ 11.7 µM)
Prevotella timonensis; isolate 601088 15
  MIC: 2 µg/mL (≈ 11.7 µM)
Prevotella timonensis; isolate 601093 24
  MIC: 2 µg/mL (≈ 11.7 µM)
Prevotella timonensis; isolate 601097 S
  MIC: 2 µg/mL (≈ 11.7 µM)
Prevotella timonensis; isolate 601098 B
  MIC: 2 µg/mL (≈ 11.7 µM)
Prevotella timonensis; isolate 601157 19
  MIC: 2 µg/mL (≈ 11.7 µM)
Prevotella timonensis; isolate 601167 13
  MIC: 2 µg/mL (≈ 11.7 µM)
Prevotella timonensis; isolate 601170 13
  MIC: 2 µg/mL (≈ 11.7 µM)
Prevotella timonensis; isolate 601175 J
  MIC: 2 µg/mL (≈ 11.7 µM)
Prevotella timonensis; isolate 601178 19
  MIC: 2 µg/mL (≈ 11.7 µM)
Prevotella timonensis; isolate 601194 9B
  MIC: 2 µg/mL (≈ 11.7 µM)
Prevotella timonensis; isolate 601214 A
  MIC: 4 µg/mL (≈ 23.4 µM)
Prevotella timonensis; isolate 601226 C
  MIC: 2 µg/mL (≈ 11.7 µM)
Prevotella timonensis; isolate 601234 B
  MIC: 2 µg/mL (≈ 11.7 µM)
